Test results taken from patent publication US11053204B2, “Pyrimidinyloxy benzene derivatives as herbicides” (FMC Corporation, priority 2015, dated 2021).

How the values were obtained:
Format in all cases: in vivo
[1] = tested on: kochia (Kochia scoparia); test: Test A postemergence, visual injury rating; conditions: Bassia scoparia, post-emergence, 240 h, 0 is no effect, 100 is complete control, read-out: Kochia plant response rating (0 to 100 scale); for pest or weed control at 125 g/ha: 125 g ai/ha; for pest or weed control at 500 g/ha: 500 g ai/ha
Method in brief: (§1)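 Greenhouse pot test, loam/sand soil. Formulation: non-phytotoxic solvent mix plus surfactant. Pre: directed spray onto soil after sowing. Post: plants at 1–2 leaf, 2–10 cm. Rated visually vs untreated controls at ~10 d, 0 (no effect) to 100 (complete control).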

[2] = tested on: galium (catchweed bedstraw, Galium aparine); test: Test A postemergence, visual injury rating; conditions: Galium, post-emergence, 240 h, 0 is no effect, 100 is complete control, read-out: Galium plant response rating (0 to 100 scale); for pest or weed control at 125 g/ha: 125 g ai/ha; for pest or weed control at 500 g/ha: 500 g ai/ha
Method in brief: as §1

[3] = tested on: blackgrass (Alopecurus myosuroides); test: Test A postemergence, visual injury rating; conditions: Alopecurus myosuroides, post-emergence, 240 h, 0 is no effect, 100 is complete control, read-out: Blackgrass plant response rating (0 to 100 scale); for pest or weed control at 125 g/ha: 125 g ai/ha; for pest or weed control at 500 g/ha: 500 g ai/ha
Method in brief: as §1

[4] = tested on: wheat (Triticum aestivum); test: Test A postemergence, visual injury rating; conditions: Triticum aestivum, post-emergence, 240 h, 0 is no effect, 100 is complete control, read-out: Wheat plant response rating (0 to 100 scale); for plant injury at 125 g/ha: 125 g ai/ha; for plant injury at 500 g/ha: 500 g ai/ha
Method in brief: as §1

[5] = tested on: giant foxtail (Setaria faberii); test: Test A postemergence, visual injury rating; conditions: Setaria faberi, post-emergence, 240 h, 0 is no effect, 100 is complete control, read-out: Foxtail, Giant plant response rating (0 to 100 scale); for pest or weed control at 125 g/ha: 125 g ai/ha; for pest or weed control at 500 g/ha: 500 g ai/ha
Method in brief: as §1

[6] = tested on: pigweed (Amaranthus retroflexus); test: Test A postemergence, visual injury rating; conditions: Amaranthus retroflexus, post-emergence, 240 h, 0 is no effect, 100 is complete control, read-out: Pigweed plant response rating (0 to 100 scale); for pest or weed control at 125 g/ha: 125 g ai/ha; for pest or weed control at 500 g/ha: 500 g ai/ha
Method in brief: as §1

[7] = tested on: barnyardgrass (Echinochloa crus-galli); test: Test A postemergence, visual injury rating; conditions: Echinochloa crus-galli, post-emergence, 240 h, 0 is no effect, 100 is complete control, read-out: Barnyardgrass plant response rating (0 to 100 scale); for pest or weed control at 125 g/ha: 125 g ai/ha; for pest or weed control at 500 g/ha: 500 g ai/ha
Method in brief: as §1

[8] = tested on: Italian ryegrass (Lolium multiflorum); test: Test A postemergence, visual injury rating; conditions: Lolium multiflorum, post-emergence, 240 h, 0 is no effect, 100 is complete control, read-out: Ryegrass, Italian plant response rating (0 to 100 scale); for pest or weed control at 125 g/ha: 125 g ai/ha; for pest or weed control at 500 g/ha: 500 g ai/ha
Method in brief: as §1

[9] = tested on: corn (Zea mays); test: Test A postemergence, visual injury rating; conditions: Zea mays, post-emergence, 240 h, 0 is no effect, 100 is complete control, read-out: Corn plant response rating (0 to 100 scale); for plant injury at 125 g/ha: 125 g ai/ha; for plant injury at 500 g/ha: 500 g ai/ha
Method in brief: as §1

[10] = tested on: ragweed (common ragweed, Ambrosia elatior); test: Test A postemergence, visual injury rating; conditions: Ambrosia artemisiifolia, post-emergence, 240 h, 0 is no effect, 100 is complete control, read-out: Ragweed plant response rating (0 to 100 scale); for pest or weed control at 125 g/ha: 125 g ai/ha; for pest or weed control at 500 g/ha: 500 g ai/ha
Method in brief: as §1

[11] = tested on: kochia (Kochia scoparia); test: Test A preemergence, visual injury rating; conditions: Bassia scoparia, pre-emergence, 240 h, 0 to 100 scale (0 no effect, 100 complete control), read-out: Kochia plant response rating; for pest or weed control at 125 g/ha: 125 g ai/ha; for pest or weed control at 500 g/ha: 500 g ai/ha
Method in brief: as §1

[12] = tested on: giant foxtail (Setaria faberii); test: Test A preemergence, visual injury rating; conditions: Setaria faberi, pre-emergence, 240 h, 0 to 100 scale (0 no effect, 100 complete control), read-out: Foxtail, Giant plant response rating; for pest or weed control at 125 g/ha: 125 g ai/ha; for pest or weed control at 500 g/ha: 500 g ai/ha
Method in brief: as §1

[13] = tested on: pigweed (Amaranthus retroflexus); test: Test A preemergence, visual injury rating; conditions: Amaranthus retroflexus, pre-emergence, 240 h, 0 to 100 scale (0 no effect, 100 complete control), read-out: Pigweed plant response rating; for pest or weed control at 125 g/ha: 125 g ai/ha; for pest or weed control at 500 g/ha: 500 g ai/ha
Method in brief: as §1

[14] = tested on: barnyardgrass (Echinochloa crus-galli); test: Test A preemergence, visual injury rating; conditions: Echinochloa crus-galli, pre-emergence, 240 h, 0 to 100 scale (0 no effect, 100 complete control), read-out: Barnyardgrass plant response rating; for pest or weed control at 125 g/ha: 125 g ai/ha; for pest or weed control at 500 g/ha: 500 g ai/ha
Method in brief: as §1

[15] = tested on: Italian ryegrass (Lolium multiflorum); test: Test A preemergence, visual injury rating; conditions: Lolium multiflorum, pre-emergence, 240 h, 0 to 100 scale (0 no effect, 100 complete control), read-out: Ryegrass, Italian plant response rating; for pest or weed control at 125 g/ha: 125 g ai/ha; for pest or weed control at 500 g/ha: 500 g ai/ha
Method in brief: as §1

[16] = tested on: ragweed (common ragweed, Ambrosia elatior); test: Test A preemergence, visual injury rating; conditions: Ambrosia artemisiifolia, pre-emergence, 240 h, 0 to 100 scale (0 no effect, 100 complete control), read-out: Ragweed plant response rating; for pest or weed control at 125 g/ha: 125 g ai/ha; for pest or weed control at 500 g/ha: 500 g ai/ha
Method in brief: as §1

Row | Structure (SMILES) | pest or weed control at 125 g/ha [1] [%] | pest or weed control at 500 g/ha [1] [%] | pest or weed control at 125 g/ha [2] [%] | pest or weed control at 500 g/ha [2] [%] | pest or weed control at 125 g/ha [3] [%] | pest or weed control at 500 g/ha [3] [%] | plant injury at 125 g/ha [4] [%] | plant injury at 500 g/ha [4] [%] | pest or weed control at 125 g/ha [5] [%] | pest or weed control at 500 g/ha [5] [%] | pest or weed control at 125 g/ha [6] [%] | pest or weed control at 500 g/ha [6] [%] | pest or weed control at 125 g/ha [7] [%] | pest or weed control at 500 g/ha [7] [%] | pest or weed control at 125 g/ha [8] [%] | pest or weed control at 500 g/ha [8] [%] | plant injury at 125 g/ha [9] [%] | plant injury at 500 g/ha [9] [%] | pest or weed control at 125 g/ha [10] [%] | pest or weed control at 500 g/ha [10] [%] | other results
1 | C=CCOC(=O)c1c(Br)cccc1Oc1ncc(Cl)cn1 [Compound 22, 2-propen-1-yl 2-bromo-6-[(5-chloro-2-pyrimidinyl)oxy]benzoate] | 90 | 100 | 30 | 90 | 60 | 90 | 0 | 30 | 80 | 100 | 100 | 100 | 60 | 100 | 0 | 60 | 30 | 50 | 0 | 30 | pest or weed control at 125 g/ha [11]: 30%; pest or weed control at 500 g/ha [11]: 100%; pest or weed control at 125 g/ha [12]: 100%; pest or weed control at 500 g/ha [12]: 100%; pest or weed control at 125 g/ha [13]: 100%; pest or weed control at 500 g/ha [13]: 100%; pest or weed control at 125 g/ha [14]: 40%; pest or weed control at 500 g/ha [14]: 100%; pest or weed control at 125 g/ha [15]: 30%; pest or weed control at 500 g/ha [15]: 90%; pest or weed control at 125 g/ha [16]: 0%; pest or weed control at 500 g/ha [16]: 0%
2 | O=C(OCC(F)(F)C(F)(F)F)c1c(Br)cccc1Oc1ncc(Cl)cn1 [Compound 23, 2,2,3,3,3-pentafluoropropyl 2-bromo-6-[(5-chloro-2-pyrimidinyl)oxy]benzoate] | 80 | 100 | 90 | 100 | 10 | 50 | 0 | 10 | 30 | 80 | 100 | 100 | 10 | 50 | 10 | 70 | 10 | 20 | 0 | 10 | pest or weed control at 125 g/ha [11]: 0%; pest or weed control at 500 g/ha [11]: 50%; pest or weed control at 125 g/ha [12]: 70%; pest or weed control at 500 g/ha [12]: 100%; pest or weed control at 125 g/ha [13]: 100%; pest or weed control at 500 g/ha [13]: 100%; pest or weed control at 125 g/ha [14]: 20%; pest or weed control at 500 g/ha [14]: 70%; pest or weed control at 125 g/ha [15]: 0%; pest or weed control at 500 g/ha [15]: 40%; pest or weed control at 125 g/ha [16]: 0%; pest or weed control at 500 g/ha [16]: 10%
